Reference: patent US20260337193A1, “SMALL MOLECULE INHIBITORS OF UBIQUITIN SPECIFIC PROTEASE 1 (USP1) AND USES THEREOF” (Insilico Medicine IP Limited, priority 2023, published 2026)
pIC50: −log10 of the molar value.

Columns and labels:
[1] = molecular target: T1, Human recombinant USP1/UAF1 (Homo sapiens, UniProt O94782); test: Enzymatic assay: USP1/UAF1 deubiquitination of Ubiquitin Rhodamine 110 (kinetic fluorescence); type: biochemical; details: 2 nM USP1/UAF1, 15 min preincubation at RT, HEPES pH 8.0, 500 nM Ubiquitin Rhodamine 110
T1 construct: purchased R & D E-568-050; host or cells: baculovirus infected Sf21 cells
Experimental: Example A1: Enzymatic Assay
Human recombinant USP1/UAF1 expressed in baculovirus infected Sf21 cells were used (R & D, E-568-050). Test compound and/or vehicle was incubated with 2 nM of USP1/UAF1 in modified HEPES buffer pH 8.0 for 15 minutes at RT. The reaction was initiated by addition of 500 nM of Ubiquitin Rhodamine 110 (R & D, U-555-050) for kinetic reading. Slope change of fluorescence intensity was read spectrofluorimetrically at 485 nm/535 nm. Dose response of test compounds or reference compound ML-323 was analyzed by nonlinear regression of GraphPad prism software.

MDA-MB-436 cells = test: MDA-MB-436 breast cancer cell proliferation assay (CellTiter-Glo); type: cell-based; details: Homo sapiens, 168 h, 7 days, 37° C.
Experimental: Example A2: MDA-MB-436 Breast Cancer Cell Culture
MDA-MB-436 cells were grown in Leibovitz's L-15 medium with 10 μg/ml insulin, 16 μg/ml glutathione, 10% FBS. Cells were passaged at subconfluence after trypsinization and maintained in incubators at 37° C. in a humidified atmosphere with 5% CO2.
Example A3: MDA-MB-436 Breast Cancer Cell Proliferation Assay
Cell proliferation was determined using CellTiter-Glo® Luminescent Cell Viability Assay (Promega, #G7573). MDA-MB-436 cells were seeded in 384-well plates and allowed to attach for 24 h. Compounds were added into 384-well plate by ECHO, and incubated at 37° C. in a humidified atmosphere with 5% CO2. After 7 days, CellTiter-Glo® was added into 384 well plates, contents were mixed on an orbital shaker at 400 g for 2 min before centrifuging the plate for 2 min at 1000 rpm. After incubation at RT for 30 min, luminescence was read on envision.

T1 sequence (O94782 whole entry): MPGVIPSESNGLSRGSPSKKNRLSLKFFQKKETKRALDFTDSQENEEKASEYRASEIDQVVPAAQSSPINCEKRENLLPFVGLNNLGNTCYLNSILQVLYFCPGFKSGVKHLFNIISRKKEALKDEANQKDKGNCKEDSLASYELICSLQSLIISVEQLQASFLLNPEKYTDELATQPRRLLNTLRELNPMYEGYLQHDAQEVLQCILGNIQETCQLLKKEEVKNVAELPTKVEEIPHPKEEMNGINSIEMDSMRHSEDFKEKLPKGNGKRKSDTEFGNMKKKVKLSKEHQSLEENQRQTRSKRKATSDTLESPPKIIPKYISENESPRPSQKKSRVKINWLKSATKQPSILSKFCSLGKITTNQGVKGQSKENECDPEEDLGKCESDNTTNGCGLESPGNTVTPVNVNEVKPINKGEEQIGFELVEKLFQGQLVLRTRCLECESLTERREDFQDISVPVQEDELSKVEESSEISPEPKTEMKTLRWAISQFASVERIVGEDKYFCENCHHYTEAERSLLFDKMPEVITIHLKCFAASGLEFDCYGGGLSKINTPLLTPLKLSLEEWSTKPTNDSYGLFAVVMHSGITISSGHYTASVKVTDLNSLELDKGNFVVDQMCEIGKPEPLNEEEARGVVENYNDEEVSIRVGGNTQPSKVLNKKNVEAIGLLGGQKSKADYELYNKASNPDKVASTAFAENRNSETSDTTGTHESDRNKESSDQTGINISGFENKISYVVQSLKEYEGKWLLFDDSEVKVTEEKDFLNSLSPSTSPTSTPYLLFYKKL
T1 sequence (Q8TAF3 whole entry partner): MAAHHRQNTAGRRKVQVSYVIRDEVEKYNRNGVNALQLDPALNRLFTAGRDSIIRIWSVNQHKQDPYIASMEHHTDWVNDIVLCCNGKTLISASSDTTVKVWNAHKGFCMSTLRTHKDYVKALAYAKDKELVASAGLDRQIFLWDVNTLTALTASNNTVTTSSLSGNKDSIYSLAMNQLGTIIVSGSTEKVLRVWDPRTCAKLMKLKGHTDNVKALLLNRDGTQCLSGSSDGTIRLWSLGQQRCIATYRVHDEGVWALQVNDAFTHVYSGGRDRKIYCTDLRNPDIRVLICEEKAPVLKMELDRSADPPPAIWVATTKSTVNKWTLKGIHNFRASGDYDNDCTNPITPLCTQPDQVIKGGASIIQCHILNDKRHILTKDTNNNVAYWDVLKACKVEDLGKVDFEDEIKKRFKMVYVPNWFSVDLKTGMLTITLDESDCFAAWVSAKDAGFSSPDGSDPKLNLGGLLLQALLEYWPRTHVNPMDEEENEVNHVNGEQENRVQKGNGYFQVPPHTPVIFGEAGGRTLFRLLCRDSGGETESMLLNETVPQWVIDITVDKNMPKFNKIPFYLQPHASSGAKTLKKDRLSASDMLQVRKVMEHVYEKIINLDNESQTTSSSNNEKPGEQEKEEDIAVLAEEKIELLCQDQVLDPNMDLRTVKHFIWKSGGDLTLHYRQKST

Structure (SMILES) | pIC50 [1] | pIC50 (MDA-MB-436 cells)
COc1ncnc(C2CC2)c1-n1nc(C)c2c1CN(c1ncc(-c3nc(C(F)(F)F)cn3C)cn1)CC2 [Compound 16, 1-(4-cyclopropyl-6-methoxypyrimidin-5-yl)-3-methyl-6-(5-(1-methyl-4-(trifluoromethyl)-1H-imidazol-2-yl)pyrimidin-2-yl)-4,5,6,7-tetrahydro-1H-pyrazolo[3,4-c]pyridine] | 6.00 to 7.30 | 6.00 to 7.30
COc1ncnc(C2CC2)c1-n1nc(C)c2c1CN(c1ccc(-c3nc(C(F)(F)F)cn3C)c(F)c1)CC2 [Compound 17, 1-(4-cyclopropyl-6-methoxypyrimidin-5-yl)-6-(3-fluoro-4-(1-methyl-4-(trifluoromethyl)-1H-imidazol-2-yl)phenyl)-3-methyl-4,5,6,7-tetrahydro-1H-pyrazolo[3,4-c]pyridine] | > 7.30 | > 7.30
COc1ncnc(C2CC2)c1-n1nc(C)c2c1CN(c1ccc(-c3nc(C(F)(F)F)cn3C)cc1F)CC2 [Compound 18, 1-(4-cyclopropyl-6-methoxypyrimidin-5-yl)-6-(2-fluoro-4-(1-methyl-4-(trifluoromethyl)-1H-imidazol-2-yl)phenyl)-3-methyl-4,5,6,7-tetrahydro-1H-pyrazolo[3,4-c]pyridine] | 6.00 to 7.30 | > 7.30
Cc1nn(-c2ccccc2C(C)C)c2c1CCN(c1ccc(-c3nc(C(F)(F)F)cn3C)cn1)C2 [Compound 19, 1-(2-isopropylphenyl)-3-methyl-6-(5-(1-methyl-4-(trifluoromethyl)-1H-imidazol-2-yl)pyridin-2-yl)-4,5,6,7-tetrahydro-1H-pyrazolo[3,4-c]pyridine] | > 7.30 | > 7.30
Cc1nn(-c2ccccc2C(C)C)c2c1CN(c1ncc(-c3nc(C(F)(F)F)cn3C)s1)C2 [Compound 22, 2-(1-(2-isopropylphenyl)-3-methyl-4,6-dihydropyrrolo[3,4-c]pyrazol-5(1H)-yl)-5-(1-methyl-4-(trifluoromethyl)-1H-imidazol-2-yl)thiazole] | 6.00 to 7.30 | 5.00 to 6.00
CC(C)c1ncccc1-c1nccc2c1CC(c1ccc(-c3nc(C(F)(F)F)cn3C)cc1)C2 (stereo not drawn) [Compound 26, 1-(2-isopropylpyridin-3-yl)-6-(4-(1-methyl-4-(trifluoromethyl)-1H-imidazol-2-yl)phenyl)-6,7-dihydro-5H-cyclopenta[c]pyridine] | > 7.30 | 6.00 to 7.30
Cc1cnn(C(C)C)c1-n1nc(C)c2c1CN(c1ccc(-c3nc(C(F)(F)F)cn3C)cn1)CC2 [Compound 27, 1-(1-isopropyl-4-methyl-1H-pyrazol-5-yl)-3-methyl-6-(5-(1-methyl-4-(trifluoromethyl)-1H-imidazol-2-yl)pyridin-2-yl)-4,5,6,7-tetrahydro-1H-pyrazolo[3,4-c]pyridine] | > 7.30 | > 7.30
CCn1cc(C(F)(F)F)nc1-c1cnc(N2CCc3c(C)nn(-c4c(C)cnn4C(C)C)c3C2)cn1 [Compound 29, 6-(5-(1-ethyl-4-(trifluoromethyl)-1H-imidazol-2-yl)pyrazin-2-yl)-1-(1-isopropyl-4-methyl-1H-pyrazol-5-yl)-3-methyl-4,5,6,7-tetrahydro-1H-pyrazolo[3,4-c]pyridine] | > 7.30 | > 7.30
Cc1cnn(C(C)C)c1-n1nc(C)c2c1CN(c1ccc(-c3nc(C(F)(F)F)cn3C)c(F)c1)CC2 [Compound 30, 6-(3-fluoro-4-(1-methyl-4-(trifluoromethyl)-1H-imidazol-2-yl)phenyl)-1-(1-isopropyl-4-methyl-1H-pyrazol-5-yl)-3-methyl-4,5,6,7-tetrahydro-1H-pyrazolo[3,4-c]pyridine] | > 7.30 | > 7.30
COc1ncnc(C2CC2)c1-c1nccc2c1CC(c1ccc(-c3nc(C(F)(F)F)cn3C)cn1)C2 (stereo not drawn) [Compound 31, 1-(4-cyclopropyl-6-methoxypyrimidin-5-yl)-6-(5-(1-methyl-4-(trifluoromethyl)-1H-imidazol-2-yl)pyridin-2-yl)-6,7-dihydro-5H-cyclopenta[c]pyridine] | 6.00 to 7.30 | 5.00 to 6.00

Results, then the molecule that gave them:

pIC50 [1] | pIC50 (MDA-MB-436 cells) | Structure (SMILES)
6.00 to 7.30 | > 7.30 | COc1ncnc(C2CC2)c1-n1nc(C)c2c1CN(c1ccc(-c3nc(C(F)(F)F)cn3C)cn1)CC2 [Compound 11, 1-(4-cyclopropyl-6-methoxypyrimidin-5-yl)-3-methyl-6-(5-(1-methyl-4-(trifluoromethyl)-1H-imidazol-2-yl)pyridin-2-yl)-4,5,6,7-tetrahydro-1H-pyrazolo[3,4-c]pyridine]
6.00 to 7.30 | > 7.30 | CCn1cc(C(F)(F)F)nc1-c1ccc(N2CCc3c(C)nn(-c4c(OC)ncnc4C4CC4)c3C2)nc1 [Compound 12, 1-(4-cyclopropyl-6-methoxypyrimidin-5-yl)-6-(5-(1-ethyl-4-(trifluoromethyl)-1H-imidazol-2-yl)pyridin-2-yl)-3-methyl-4,5,6,7-tetrahydro-1H-pyrazolo[3,4-c]pyridine]
6.00 to 7.30 | 6.00 to 7.30 | COc1ncnc(C2CC2)c1-n1nc(C)c2c1CN(c1ccc(-c3nc(C(F)(F)F)cn3C(C)C)cn1)CC2 [Compound 13, 1-(4-cyclopropyl-6-methoxypyrimidin-5-yl)-6-(5-(1-isopropyl-4-(trifluoromethyl)-1H-imidazol-2-yl)pyridin-2-yl)-3-methyl-4,5,6,7-tetrahydro-1H-pyrazolo[3,4-c]pyridine]
6.00 to 7.30 | 6.00 to 7.30 | COc1ncnc(C2CC2)c1-n1nc(C)c2c1CN(c1ccc(-c3nc(C(F)(F)F)cn3C)nc1)CC2 [Compound 14, 1-(4-cyclopropyl-6-methoxypyrimidin-5-yl)-3-methyl-6-(6-(1-methyl-4-(trifluoromethyl)-1H-imidazol-2-yl)pyridin-3-yl)-4,5,6,7-tetrahydro-1H-pyrazolo[3,4-c]pyridine]
> 7.30 | > 7.30 | COc1ncnc(C2CC2)c1-n1nc(C)c2c1CN(c1cnc(-c3nc(C(F)(F)F)cn3C)cn1)CC2 [Compound 15, 1-(4-cyclopropyl-6-methoxypyrimidin-5-yl)-3-methyl-6-(5-(1-methyl-4-(trifluoromethyl)-1H-imidazol-2-yl)pyrazin-2-yl)-4,5,6,7-tetrahydro-1H-pyrazolo[3,4-c]pyridine]
6.00 to 7.30 | 6.00 to 7.30 | COc1ncnc(C2CC2)c1-n1nc(C)c2c1CN(c1ccc(-n3nc(C(F)(F)F)cc3C)cn1)CC2 [Compound 20, 1-(4-cyclopropyl-6-methoxypyrimidin-5-yl)-3-methyl-6-(5-(5-methyl-3-(trifluoromethyl)-1H-pyrazol-1-yl)pyridin-2-yl)-4,5,6,7-tetrahydro-1H-pyrazolo[3,4-c]pyridine]
6.00 to 7.30 | 6.00 to 7.30 | COc1ncnc(C2CC2)c1-n1nc(C)c2c1CN(c1ncc(-c3nc(C(F)(F)F)cn3C)s1)CC2 [Compound 21, 2-(1-(4-cyclopropyl-6-methoxypyrimidin-5-yl)-3-methyl-1,4,5,7-tetrahydro-6H-pyrazolo[3,4-c]pyridin-6-yl)-5-(1-methyl-4-(trifluoromethyl)-1H-imidazol-2-yl)thiazole]
6.00 to 7.30 | 6.00 to 7.30 | COc1ncnc(C2CC2)c1-n1nc(C(F)(F)F)c2c1CN(c1ccc(-c3nc(C(F)(F)F)cn3C)cn1)CC2 [Compound 23, 1-(4-cyclopropyl-6-methoxypyrimidin-5-yl)-6-(5-(1-methyl-4-(trifluoromethyl)-1H-imidazol-2-yl)pyridin-2-yl)-3-(trifluoromethyl)-4,5,6,7-tetrahydro-1H-pyrazolo[3,4-c]pyridine]
6.00 to 7.30 | 6.00 to 7.30 | Cc1nn(-c2c(OC(F)F)ncnc2C2CC2)c2c1CCN(c1ccc(-c3nc(C(F)(F)F)cn3C)cn1)C2 [Compound 24, 1-(4-cyclopropyl-6-(difluoromethoxy)pyrimidin-5-yl)-3-methyl-6-(5-(1-methyl-4-(trifluoromethyl)-1H-imidazol-2-yl)pyridin-2-yl)-4,5,6,7-tetrahydro-1H-pyrazolo[3,4-c]pyridine]
> 7.30 | > 7.30 | COc1ncnc(C2CC2)c1-n1nc(C)c2c1CN(c1ccc(-c3nc(C(F)(F)F)cn3C)c(F)n1)CC2 [Compound 25, 1-(4-cyclopropyl-6-methoxypyrimidin-5-yl)-6-(6-fluoro-5-(1-methyl-4-(trifluoromethyl)-1H-imidazol-2-yl)pyridin-2-yl)-3-methyl-4,5,6,7-tetrahydro-1H-pyrazolo[3,4-c]pyridine]
> 7.30 | > 7.30 | COc1ncnc(C2CC2)c1-n1nc(Cl)c2c1CN(c1ccc(-c3nc(C(F)(F)F)cn3C)cn1)CC2 [Compound 28, 3-chloro-1-(4-cyclopropyl-6-methoxypyrimidin-5-yl)-6-(5-(1-methyl-4-(trifluoromethyl)-1H-imidazol-2-yl)pyridin-2-yl)-4,5,6,7-tetrahydro-1H-pyrazolo[3,4-c]pyridine]
